Measurements from publication PMC7343746, “(2S, 4R)-4-[^18F]Fluoroglutamine for In vivo PET Imaging of Glioma Xenografts in Mice: an Evaluation of Multiple Pharmacokinetic Models” (Molecular Imaging and Biology, 2020).

How the values were obtained:
[1] = system: patient-derived BT3 glioma cells; test: Patlak plot (irreversible uptake model), orthotopic model; format: in vivo, BALB/cOlaHsd-Foxn1^nu mouse; conditions: for Patlak Ic (AB) y intercept: AB input; for Patlak Ic (PC) y intercept: PC input
Experimental: (§1) Image analysis was performed using CARIMAS software published and freely distributed by the Turku PET Center (http://turkupetcentre.fi/carimas/). CT scans were used as rough anatomical reference while tumor regions of interest (ROI) were hand-drawn based upon observed spikes of radioactivity in the PET images at locations correlating with recorded tumor grafts. Control muscle ROIs were drawn on the side opposite to the tumor in the leg flank muscle (based on CT) while the blood ROI was drawn based upon heart anatomical location and observed PET image radioactivity spike during the initial 20 s of imaging in the left ventricle. Standardized uptake values (SUV) were calculated with respect to ROI volume, mean and max tumor radioactivity, total injected radioactivity dose (corrected for tail, cannula, and syringe residual radioactivity), and animal weight, and were additionally presented as tumor-to-background ratio (TBR, tumor-to-healthy brain region for intracranial gliomas and tumor-to-muscle for subcutaneous gliomas) as defined by recent glioma research literature standards. Mean and maximum TBR values were reported as ROI radioactivity per volume divided by mean background radioactivity per volume. The blood radioactivity SUV and gender-specific metabolite-corrected blood radioactivity SUV were then applied to multiple pharmacokinetic models to characterize the flux of the tracer (further described in the “Modeling” section).
(§2) Using the heart’s left ventricle ROI from the PET data as an uncorrected radioactivity level input and the bioavailable parent-tracer fraction (results: Eqs. 3 and 4 applied to the uncorrected input) as the corrected input, multiple models were investigated to characterize the tissue uptake dynamics. Two-compartment modeling and Logan, Patlak, and Yokoi plots were used to separately model the pharmacokinetics for the gliomas (both subcutaneous and orthotopic loci) and their respective control tissues (healthy muscle and healthy brain, respectively). Where indicated, means plus/minus standard deviations are reported. Difference in parameters for uncorrected versus correct and target tissue versus their respective control regions were tested with students’ paired t tests with P values lower than 0.05 being considered significant.

rat BT4C glioma cells = test: Logan plot (reversible uptake model), subcutaneous model; format: in vivo, Foxn1^nu/nu mouse; conditions: for AB distribution volume: arterial blood input; for PC distribution volume: plasma-corrected input; for Logan DV (AB) distribution volume / Logan Ic (AB) y intercept: AB input; for Logan DV (PC) distribution volume / Logan IC (PC) y intercept: PC input
Experimental: as §1, §2

[2] = system: patient-derived BT3 glioma cells; test: Yokoi plot, orthotopic model; format: in vivo, BALB/cOlaHsd-Foxn1^nu mouse; conditions: for Yokoi K1 (AB) plasma to tissue transport rate / Yokoi K1/k2 (AB) binding potential / Yokoi k2 (AB) tissue to plasma transport rate: AB input; for Yokoi K1 (PC) plasma to tissue transport rate / Yokoi K1/k2 (PC) binding potential / Yokoi k2 (PC) tissue to plasma transport rate: PC input
Experimental: as §1, §2

[3] = Bone (femoral condyle) average (n = 6)

Question: How did the “Patlak Ic (AB) y intercept” value ([1]; Subject A brain (control)) turn out when NC(=O)[C@H]([18F])C[C@H](N)C(=O)O [[^18F]FGln, (2S, 4R)-4-[^18F]fluoroglutamine] was run?
Answer: 0.1654

Question: What about the “Patlak Ic (PC) y intercept” value ([1]; Subject A brain (control)) of the same molecule?
Answer: 0.2100

Question: What about the “Patlak Ic (AB) y intercept” value ([1]; Subject A glioma max.) of the same molecule?
Answer: 1.07

Question: And the “Patlak Ic (PC) y intercept” value ([1]; Subject A glioma max.)?
Answer: 1.4536

Question: And the “Patlak Ic (AB) y intercept” value ([1]; Subject A o.t. glioma)?
Answer: 0.7386

Question: And the “Patlak Ic (PC) y intercept” value ([1]; Subject A o.t. glioma)?
Answer: 0.9480

Question: What about the “Patlak Ic (AB) y intercept” value ([1]; Subject B brain (control)) of the same molecule?
Answer: 0.1316

Question: And the “Patlak Ic (PC) y intercept” value ([1]; Subject B brain (control))?
Answer: 0.1563

Question: What about the “Patlak Ic (AB) y intercept” value ([1]; Subject B glioma max.) of the same molecule?
Answer: 0.4556

Question: And the “Patlak Ic (PC) y intercept” value ([1]; Subject B glioma max.)?
Answer: 0.5434

Question: What about the “Patlak Ic (AB) y intercept” value ([1]; Subject B o.t. glioma) of the same molecule?
Answer: 0.4687

Question: And the “Patlak Ic (PC) y intercept” value ([1]; Subject B o.t. glioma)?
Answer: 0.5996

Question: And the AB distribution volume (rat BT4C glioma cells; Bone (femoral condyle) (n = 6))?
Answer: 5.11 ± 2.19

Question: What about the PC distribution volume (rat BT4C glioma cells; Bone (femoral condyle) (n = 6)) of the same molecule?
Answer: 13.47 ± 7.70

Question: What about the “Logan DV (AB) distribution volume” value (rat BT4C glioma cells; [3]) of the same molecule?
Answer: 5.11 ± 2.19

Question: And the “Logan Ic (AB) y intercept” value (rat BT4C glioma cells; [3])?
Answer: -66.36 ± 26.46

Question: And the “Logan DV (PC) distribution volume” value (rat BT4C glioma cells; [3])?
Answer: 13.47 ± 7.70

Question: What about the “Logan IC (PC) y intercept” value (rat BT4C glioma cells; [3]) of the same molecule?
Answer: -142.79 ± 84.46

Question: And the AB distribution volume (rat BT4C glioma cells; Flank muscle (n = 6))?
Answer: 0.77 ± 0.13

Question: And the PC distribution volume (rat BT4C glioma cells; Flank muscle (n = 6))?
Answer: 1.38 ± 0.23

Question: And the “Logan DV (AB) distribution volume” value (rat BT4C glioma cells; Flank muscle average (n = 6))?
Answer: 0.77 ± 0.13

Question: What about the “Logan Ic (AB) y intercept” value (rat BT4C glioma cells; Flank muscle average (n = 6)) of the same molecule?
Answer: -15.28 ± 5.34

Question: What about the “Logan DV (PC) distribution volume” value (rat BT4C glioma cells; Flank muscle average (n = 6)) of the same molecule?
Answer: 1.38 ± 0.23

Question: What about the “Logan IC (PC) y intercept” value (rat BT4C glioma cells; Flank muscle average (n = 6)) of the same molecule?
Answer: -27.58 ± 7.76

Question: And the AB distribution volume (rat BT4C glioma cells; Flank tumor (n = 6))?
Answer: 1.13 ± 0.09

Question: What about the PC distribution volume (rat BT4C glioma cells; Flank tumor (n = 6)) of the same molecule?
Answer: 1.96 ± 0.15

Question: What about the “Logan DV (AB) distribution volume” value (rat BT4C glioma cells; Flank tumor average (n = 6)) of the same molecule?
Answer: 1.13 ± 0.09

Question: And the “Logan Ic (AB) y intercept” value (rat BT4C glioma cells; Flank tumor average (n = 6))?
Answer: -10.31 ± 3.60

Question: What about the “Logan DV (PC) distribution volume” value (rat BT4C glioma cells; Flank tumor average (n = 6)) of the same molecule?
Answer: 1.96 ± 0.15

Question: And the “Logan IC (PC) y intercept” value (rat BT4C glioma cells; Flank tumor average (n = 6))?
Answer: -19.79 ± 4.89

Question: And the AB distribution volume (rat BT4C glioma cells; Neck tumor (n = 6))?
Answer: 1.21 ± 0.08

Question: And the PC distribution volume (rat BT4C glioma cells; Neck tumor (n = 6))?
Answer: 2.08 ± 0.13

Question: What about the “Logan DV (AB) distribution volume” value (rat BT4C glioma cells; Neck tumor average (n = 6)) of the same molecule?
Answer: 1.21 ± 0.08

Question: And the “Logan Ic (AB) y intercept” value (rat BT4C glioma cells; Neck tumor average (n = 6))?
Answer: -7.63 ± 2.79

Question: And the “Logan DV (PC) distribution volume” value (rat BT4C glioma cells; Neck tumor average (n = 6))?
Answer: 2.08 ± 0.13

Question: And the “Logan IC (PC) y intercept” value (rat BT4C glioma cells; Neck tumor average (n = 6))?
Answer: -16.47 ± 3.85

Question: What about the “Yokoi K1 (AB) plasma to tissue transport rate” value (shortened to “Yokoi K1 (AB) plasma”) ([2]; Subject A brain (control)) of the same molecule?
Answer: 0.018 mL min-1 mL-1

Question: And the “Yokoi K1/k2 (AB) binding potential” value ([2]; Subject A brain (control))?
Answer: 0.34 mL mL-1

Question: What about the “Yokoi k2 (AB) tissue to plasma transport rate” value (from here on “Yokoi k2 (AB) tissue”) ([2]; Subject A brain (control)) of the same molecule?
Answer: 0.054 min⁻¹

Question: What about the “Yokoi K1 (PC) plasma to tissue transport rate” value (“Yokoi K1 (PC) plasma” for short) ([2]; Subject A brain (control)) of the same molecule?
Answer: 0.019 mL min-1 mL-1

Question: And the “Yokoi K1/k2 (PC) binding potential” value ([2]; Subject A brain (control))?
Answer: 0.68 mL mL-1

Question: What about the “Yokoi k2 (PC) tissue to plasma transport rate” value (“Yokoi k2 (PC) tissue” for short) ([2]; Subject A brain (control)) of the same molecule?
Answer: 0.028 min⁻¹

Question: What about the “Yokoi K1 (AB) plasma” value ([2]; Subject A glioma max.) of the same molecule?
Answer: 0.120 mL min-1 mL-1

Question: What about the “Yokoi K1/k2 (AB) binding potential” value ([2]; Subject A glioma max.) of the same molecule?
Answer: 1.59 mL mL-1

Question: And the “Yokoi k2 (AB) tissue” value ([2]; Subject A glioma max.)?
Answer: 0.075 min⁻¹

Question: And the “Yokoi K1 (PC) plasma” value ([2]; Subject A glioma max.)?
Answer: 0.121 mL min-1 mL-1

Question: What about the “Yokoi K1/k2 (PC) binding potential” value ([2]; Subject A glioma max.) of the same molecule?
Answer: 2.95 mL mL-1

Question: And the “Yokoi k2 (PC) tissue” value ([2]; Subject A glioma max.)?
Answer: 0.041 min⁻¹

Question: What about the “Yokoi K1 (AB) plasma” value ([2]; Subject A o.t. glioma) of the same molecule?
Answer: 0.078 mL min-1 mL-1

Question: And the “Yokoi K1/k2 (AB) binding potential” value ([2]; Subject A o.t. glioma)?
Answer: 1.50 mL mL-1

Question: And the “Yokoi k2 (AB) tissue” value ([2]; Subject A o.t. glioma)?
Answer: 0.052 min⁻¹

Question: And the “Yokoi K1 (PC) plasma” value ([2]; Subject A o.t. glioma)?
Answer: 0.083 mL min-1 mL-1

Question: What about the “Yokoi K1/k2 (PC) binding potential” value ([2]; Subject A o.t. glioma) of the same molecule?
Answer: 2.96 mL mL-1

Question: And the “Yokoi k2 (PC) tissue” value ([2]; Subject A o.t. glioma)?
Answer: 0.028 min⁻¹

Question: And the “Yokoi K1 (AB) plasma” value ([2]; Subject B brain (control))?
Answer: 0.015 mL min-1 mL-1

Question: And the “Yokoi K1/k2 (AB) binding potential” value ([2]; Subject B brain (control))?
Answer: 0.33 mL mL-1

Question: And the “Yokoi k2 (AB) tissue” value ([2]; Subject B brain (control))?
Answer: 0.045 min⁻¹

Question: And the “Yokoi K1 (PC) plasma” value ([2]; Subject B brain (control))?
Answer: 0.015 mL min-1 mL-1

Question: What about the “Yokoi K1/k2 (PC) binding potential” value ([2]; Subject B brain (control)) of the same molecule?
Answer: 0.69 mL mL-1

Question: What about the “Yokoi k2 (PC) tissue” value ([2]; Subject B brain (control)) of the same molecule?
Answer: 0.022 min⁻¹

Question: What about the “Yokoi K1 (AB) plasma” value ([2]; Subject B glioma max.) of the same molecule?
Answer: 0.046 mL min-1 mL-1

Question: And the “Yokoi K1/k2 (AB) binding potential” value ([2]; Subject B glioma max.)?
Answer: 1.29 mL mL-1

Question: And the “Yokoi k2 (AB) tissue” value ([2]; Subject B glioma max.)?
Answer: 0.036 min⁻¹

Question: What about the “Yokoi K1 (PC) plasma” value ([2]; Subject B glioma max.) of the same molecule?
Answer: 0.049 mL min-1 mL-1

Question: And the “Yokoi K1/k2 (PC) binding potential” value ([2]; Subject B glioma max.)?
Answer: 2.79 mL mL-1

Question: And the “Yokoi k2 (PC) tissue” value ([2]; Subject B glioma max.)?
Answer: 0.017 min⁻¹

Question: And the “Yokoi K1 (AB) plasma” value ([2]; Subject B o.t. glioma)?
Answer: 0.045 mL min-1 mL-1

Question: What about the “Yokoi K1/k2 (AB) binding potential” value ([2]; Subject B o.t. glioma) of the same molecule?
Answer: 0.99 mL mL-1

Question: And the “Yokoi k2 (AB) tissue” value ([2]; Subject B o.t. glioma)?
Answer: 0.046 min⁻¹

Question: What about the “Yokoi K1 (PC) plasma” value ([2]; Subject B o.t. glioma) of the same molecule?
Answer: 0.047 mL min-1 mL-1

Question: What about the “Yokoi K1/k2 (PC) binding potential” value ([2]; Subject B o.t. glioma) of the same molecule?
Answer: 1.96 mL mL-1

Question: And the “Yokoi k2 (PC) tissue” value ([2]; Subject B o.t. glioma)?
Answer: 0.024 min⁻¹
